Results from patent publication US20230074252A1, “DOSAGES AND METHODS FOR TREATING PULMONARY ARTERIAL HYPERTENSION WITH RODATRISTAT” (Altavant Sciences GmbH, priority 2020, published 2023).
“Also recorded” adds a separate entry of the source.

Key:
CYP3A4 = experiment: FDA guidance DDI risk assessment, perpetrator potential; set-up: species or system human; conditions: predicted @ 600 mg BID
Procedure: The potential for rodatristat ethyl or rodatristat to be perpetrators of drug-drug interactions was assessed across in vitro CYP and transporter studies (Tables 1-4). […] This analysis was performed to assess the potential for clinically meaningful DDIs as recommended in FDA Draft Guidance: “In Vitro Metabolism- and Transporter-Mediated Drug-Drug Interaction Studies Guidance for Industry”; October 2017 (FDA, 2017).
R1 and R3 values using free (non-protein bound) drug levels were calculated based on plasma protein binding (fraction bound, fb) of rodatristat ethyl (0.995) and rodatristat (0.991). The FDA Guidance is set forth In Vitro Metabolism- and Transporter-Mediated Drug-Drug Interaction Studies Guidance for Industry (2017). […] Parameters for the prediction are set forth below in Tables 5 and 6.

CYP2C19 = CYP2C19 (Homo sapiens, UniProt P33261); experiment: In vitro CYP substrate assessment (victim potential); assay type: in vitro ADME
OCT2 = biological target: T1, OCT2 (Homo sapiens, UniProt O15244); experiment: Transporter inhibition, transporter-expressing in vitro system; assay type: in vitro ADME; conditions: for IC50: concentrations of up to 20 μM; for Potential for interaction? (transporter inhibitor), OCT2: predicted @ 600 mg BID
T1 sequence (O15244 1-555): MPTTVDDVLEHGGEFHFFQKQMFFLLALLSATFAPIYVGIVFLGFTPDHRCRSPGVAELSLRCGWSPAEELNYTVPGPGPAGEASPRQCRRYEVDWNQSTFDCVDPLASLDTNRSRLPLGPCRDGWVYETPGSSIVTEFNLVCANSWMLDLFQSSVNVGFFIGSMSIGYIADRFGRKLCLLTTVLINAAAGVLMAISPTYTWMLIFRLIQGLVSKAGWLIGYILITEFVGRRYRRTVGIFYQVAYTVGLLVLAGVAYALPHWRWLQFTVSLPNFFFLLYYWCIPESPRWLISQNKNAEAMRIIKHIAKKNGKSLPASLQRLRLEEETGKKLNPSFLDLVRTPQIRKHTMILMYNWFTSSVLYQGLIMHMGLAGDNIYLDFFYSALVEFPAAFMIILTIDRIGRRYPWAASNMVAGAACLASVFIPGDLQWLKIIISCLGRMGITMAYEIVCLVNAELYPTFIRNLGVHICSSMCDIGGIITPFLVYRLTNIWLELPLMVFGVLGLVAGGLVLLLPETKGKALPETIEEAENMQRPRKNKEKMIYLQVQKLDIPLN
Procedure: (§1) The competitive inhibition of specific transporters was investigated for RVT-1201 and KAR5417 in transporter-expressing in vitro systems (XT158039). Inhibition of P-gp was evaluated using a Caco-2 cell line with digoxin as probe substrate. Inhibition of OATP1B1 and OATP1B3 was evaluated using a HEK293 cell line expressing these transporters with estradiol-17β-glucuronide as probe substrate. In addition, inhibition of other transporters was also investigated (BCRP, OAT1, OAT3, OCT2, MATE1, MATE2-K). The IC50 estimates for P-gp (RVT-1201) and OATP1B1/3 (RVT-1201 and KAR5417) supported further evaluation of inhibition DDI potential using the PBPK model. For each IC50 estimate, substrate concentration and Km were used to estimate RVT-1201 and KAR5417 Ki with Equation 1 (Cheng and Prusoff, 1973).

P-gp [1] = biological target: T2, P-gp (Homo sapiens, UniProt P08183); experiment: Transporter inhibition, Caco-2 cells, digoxin probe; assay type: in vitro ADME; conditions: for Potential for interaction? (transporter inhibitor), P-gp: predicted @ 600 mg BID
T2 construct: endogenous in cells; host or cells: Caco-2
Procedure: as §1

BCRP = biological target: T3, BCRP (Homo sapiens, UniProt Q9UNQ0); experiment: In vitro transporter substrate assessment; assay type: in vitro ADME
T3 sequence (Q9UNQ0 1-655): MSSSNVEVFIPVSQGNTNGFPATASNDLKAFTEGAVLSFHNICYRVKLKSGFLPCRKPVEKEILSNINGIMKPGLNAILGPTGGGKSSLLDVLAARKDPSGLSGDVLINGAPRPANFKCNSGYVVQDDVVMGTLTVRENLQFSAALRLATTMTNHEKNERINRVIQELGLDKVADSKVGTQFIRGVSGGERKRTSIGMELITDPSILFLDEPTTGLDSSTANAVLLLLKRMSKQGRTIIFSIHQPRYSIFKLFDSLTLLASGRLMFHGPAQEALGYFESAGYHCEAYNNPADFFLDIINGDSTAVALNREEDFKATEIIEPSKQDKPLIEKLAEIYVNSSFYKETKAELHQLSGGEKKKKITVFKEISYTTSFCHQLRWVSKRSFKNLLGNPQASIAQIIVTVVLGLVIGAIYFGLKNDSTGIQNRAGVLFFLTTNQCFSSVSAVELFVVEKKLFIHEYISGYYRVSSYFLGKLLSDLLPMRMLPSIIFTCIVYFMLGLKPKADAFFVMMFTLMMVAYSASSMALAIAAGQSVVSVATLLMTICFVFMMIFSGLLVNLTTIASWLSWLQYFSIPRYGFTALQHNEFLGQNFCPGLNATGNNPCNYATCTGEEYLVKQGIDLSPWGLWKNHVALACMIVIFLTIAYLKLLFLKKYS
Excerpt: (§2) Consequently, the elimination of rodatristat into bile may be impacted by co-administration with agents that are BCRP inhibitors.

MRP2 = MRP2 (Homo sapiens, UniProt Q92887); experiment: In vitro transporter substrate assessment; assay type: in vitro ADME
Excerpt: as §2

P-gp [2] = biological target: T2, P-gp; experiment: In vitro transporter substrate assessment; assay type: in vitro ADME
Excerpt: as §2

T2 sequence (P08183 whole entry): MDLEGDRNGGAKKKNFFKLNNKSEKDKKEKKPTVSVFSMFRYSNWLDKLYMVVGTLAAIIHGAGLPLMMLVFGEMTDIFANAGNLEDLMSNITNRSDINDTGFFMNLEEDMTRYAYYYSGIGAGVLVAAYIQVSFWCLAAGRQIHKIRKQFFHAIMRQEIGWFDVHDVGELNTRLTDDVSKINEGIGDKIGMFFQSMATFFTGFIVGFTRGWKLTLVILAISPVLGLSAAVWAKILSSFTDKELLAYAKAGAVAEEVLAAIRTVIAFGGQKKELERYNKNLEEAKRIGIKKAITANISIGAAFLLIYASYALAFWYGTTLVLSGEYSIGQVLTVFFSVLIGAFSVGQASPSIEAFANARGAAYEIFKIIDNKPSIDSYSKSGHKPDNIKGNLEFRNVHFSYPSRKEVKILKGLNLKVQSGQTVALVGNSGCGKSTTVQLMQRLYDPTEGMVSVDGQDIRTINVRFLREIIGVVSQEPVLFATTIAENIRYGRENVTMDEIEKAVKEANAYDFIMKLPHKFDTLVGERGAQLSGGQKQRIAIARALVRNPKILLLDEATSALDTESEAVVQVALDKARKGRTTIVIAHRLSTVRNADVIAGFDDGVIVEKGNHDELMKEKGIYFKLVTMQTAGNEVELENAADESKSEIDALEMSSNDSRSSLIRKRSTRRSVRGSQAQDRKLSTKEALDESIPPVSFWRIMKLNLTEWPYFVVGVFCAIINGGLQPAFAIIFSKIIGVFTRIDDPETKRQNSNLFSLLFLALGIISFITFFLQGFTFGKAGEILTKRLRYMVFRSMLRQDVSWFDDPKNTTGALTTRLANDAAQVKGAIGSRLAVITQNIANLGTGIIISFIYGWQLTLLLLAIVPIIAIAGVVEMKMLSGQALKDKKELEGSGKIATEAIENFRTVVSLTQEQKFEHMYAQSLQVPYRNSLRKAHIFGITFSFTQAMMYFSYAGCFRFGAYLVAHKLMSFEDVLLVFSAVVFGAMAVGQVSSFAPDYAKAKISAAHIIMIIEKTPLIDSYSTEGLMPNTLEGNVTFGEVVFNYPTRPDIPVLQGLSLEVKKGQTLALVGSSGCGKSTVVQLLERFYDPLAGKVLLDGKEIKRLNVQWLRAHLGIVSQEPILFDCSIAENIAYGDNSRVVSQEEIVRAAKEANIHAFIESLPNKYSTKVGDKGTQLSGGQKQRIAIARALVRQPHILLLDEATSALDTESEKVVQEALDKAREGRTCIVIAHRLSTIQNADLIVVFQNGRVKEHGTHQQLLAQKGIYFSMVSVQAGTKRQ
Sequence of MRP2 (Q92887 whole entry): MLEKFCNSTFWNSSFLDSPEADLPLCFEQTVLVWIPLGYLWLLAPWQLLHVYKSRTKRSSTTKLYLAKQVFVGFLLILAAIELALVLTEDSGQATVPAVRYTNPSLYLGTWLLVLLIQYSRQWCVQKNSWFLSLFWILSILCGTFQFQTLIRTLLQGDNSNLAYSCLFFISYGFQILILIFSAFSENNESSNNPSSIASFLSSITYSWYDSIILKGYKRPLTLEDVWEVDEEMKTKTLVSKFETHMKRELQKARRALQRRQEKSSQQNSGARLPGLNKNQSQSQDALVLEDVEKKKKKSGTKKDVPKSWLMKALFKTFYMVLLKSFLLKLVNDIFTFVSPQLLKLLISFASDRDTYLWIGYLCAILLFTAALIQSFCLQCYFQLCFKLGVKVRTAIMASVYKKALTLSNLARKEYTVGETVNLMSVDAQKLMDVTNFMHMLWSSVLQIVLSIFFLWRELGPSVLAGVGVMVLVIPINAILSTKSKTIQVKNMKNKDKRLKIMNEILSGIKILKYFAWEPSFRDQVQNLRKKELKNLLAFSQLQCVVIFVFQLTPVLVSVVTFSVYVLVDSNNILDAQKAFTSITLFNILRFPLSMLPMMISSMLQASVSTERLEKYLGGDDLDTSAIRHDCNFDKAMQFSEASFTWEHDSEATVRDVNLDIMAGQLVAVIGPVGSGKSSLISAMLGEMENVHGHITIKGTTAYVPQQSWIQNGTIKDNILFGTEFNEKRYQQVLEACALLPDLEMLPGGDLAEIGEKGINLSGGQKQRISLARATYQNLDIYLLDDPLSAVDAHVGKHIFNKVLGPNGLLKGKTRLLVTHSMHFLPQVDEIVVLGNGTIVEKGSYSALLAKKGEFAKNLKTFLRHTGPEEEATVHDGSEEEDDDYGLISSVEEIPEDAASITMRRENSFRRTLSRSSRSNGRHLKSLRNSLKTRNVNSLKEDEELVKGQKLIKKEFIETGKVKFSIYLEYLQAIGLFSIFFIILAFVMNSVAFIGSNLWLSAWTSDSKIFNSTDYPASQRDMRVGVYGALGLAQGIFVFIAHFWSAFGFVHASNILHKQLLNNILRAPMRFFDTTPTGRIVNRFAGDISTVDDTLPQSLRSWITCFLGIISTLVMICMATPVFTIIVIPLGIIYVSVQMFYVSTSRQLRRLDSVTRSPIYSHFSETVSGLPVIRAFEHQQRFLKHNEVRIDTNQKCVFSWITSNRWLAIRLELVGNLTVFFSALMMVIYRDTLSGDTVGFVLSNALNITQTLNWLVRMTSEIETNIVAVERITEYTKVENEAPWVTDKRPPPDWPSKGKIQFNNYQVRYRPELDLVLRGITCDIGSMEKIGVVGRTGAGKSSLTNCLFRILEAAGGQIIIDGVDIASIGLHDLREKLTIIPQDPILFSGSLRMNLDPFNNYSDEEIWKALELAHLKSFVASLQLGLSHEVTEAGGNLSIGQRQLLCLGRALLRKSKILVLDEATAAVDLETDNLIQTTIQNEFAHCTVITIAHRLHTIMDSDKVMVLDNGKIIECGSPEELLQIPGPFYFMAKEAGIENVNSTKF
Sequence of CYP2C19 (P33261 whole entry): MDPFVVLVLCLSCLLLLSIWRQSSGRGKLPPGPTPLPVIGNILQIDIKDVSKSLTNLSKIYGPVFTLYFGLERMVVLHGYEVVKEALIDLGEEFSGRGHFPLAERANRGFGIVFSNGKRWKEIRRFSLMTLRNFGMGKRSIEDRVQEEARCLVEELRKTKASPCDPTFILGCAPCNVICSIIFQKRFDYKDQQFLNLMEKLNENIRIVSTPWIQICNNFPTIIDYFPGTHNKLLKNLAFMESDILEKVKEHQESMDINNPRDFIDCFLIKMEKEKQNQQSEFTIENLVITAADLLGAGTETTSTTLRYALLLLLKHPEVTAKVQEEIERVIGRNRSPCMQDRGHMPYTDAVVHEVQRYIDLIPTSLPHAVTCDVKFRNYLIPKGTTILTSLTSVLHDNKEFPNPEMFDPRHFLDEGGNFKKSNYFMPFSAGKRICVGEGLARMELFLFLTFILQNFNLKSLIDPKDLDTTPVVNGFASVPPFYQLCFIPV

Potential for interaction (perpetrator), CYP3A4 (CYP3A4)	In vitro substrate? CYP2C19 (CYP2C19)	IC50 (OCT2)	Potential for interaction? (transporter inhibitor), OCT2 (OCT2)	IC50 (P-gp [1]; Caco 2 cells, read-out: In vitro IC50, P-gp)	Potential for interaction? (transporter inhibitor), P-gp (P-gp [1])	Inhibition of P-gp (in words) (P-gp [1])	SMILES	In vitro substrate? BCRP (BCRP)	In vitro substrate? MRP2 (MRP2)	In vitro substrate? P-gp (P-gp [2])
Yes	No	> 20 µM	No	3.32 µM	Yes		CCOC(=O)[C@@H]1CC2(CCN(c3cc(O[C@H](c4ccc(Cl)cc4-c4ccccc4)C(F)(F)F)nc(N)n3)CC2)CN1 [Rodatristat ethyl, (S)-ethyl 8-(2-amino-6-((R)-1-(5-chloro-[1,1′-biphenyl]-2-yl)-2,2,2-trifluoroethoxy)pyrimidin-4-yl)-2,8-diazaspiro[4.5]decane-3-carboxylate]	not a substrate; also recorded: not likely	not a substrate; also recorded: not likely	not a substrate; also recorded: not likely
Yes	No	> 20 µM	No		No	not an inhibitor	Nc1nc(O[C@H](c2ccc(Cl)cc2-c2ccccc2)C(F)(F)F)cc(N2CCC3(CC2)CN[C@H](C(=O)O)C3)n1 [Rodatristat, (S)-8-(2-amino-6-((R)-1-(5-chloro-[1,1′-biphenyl]-2-yl)-2,2,2-trifluoroeth-oxy)pyrimidin-4-yl)-2,8-diazaspiro[4.5]decane-3-carboxylic acid]	potential substrate	not an in vitro substrate; also recorded: Not likely	potential substrate
